Measured values: publication PMC7906907, “Targeting STAT3 by a small molecule suppresses pancreatic cancer progression” (Oncogene, 2021)

Columns and labels:
[1] = tested on: CAPAN-2, PANC-1, and MIAPACA-2 cells; assay: Colony formation; assay type: cell-based; conditions: 7 days
Experimental: Fig. 4 N4 suppresses pancreatic cancer cell proliferation and migration and induces apoptosis. A Pancreatic cancer cells (CAPAN-2, PANC-1, MIAPACA-2, BXPC-3, HPAC, and CFPAC-1) and normal cells (HPNE, HAF) were incubated with the indicated concentration of N4 for 48 h. MTS assays were performed to detect the N4-mediated inhibition of cell proliferation. Data are shown as mean ± SD, *P < 0.05, **P < 0.01, ***P < 0.001, ****P < 0.0001, n.s. not significant by one-way ANOVA followed by multiple comparisons. B, C CAPAN-2, PANC-1, and MIAPACA-2 cells were treated with N4 (B) or C188-9 (C) for 7 days. The cells fixed and stained, and colony numbers were calculated. Experiments were carried out in triplicate with identical results obtained. […] Apoptotic cells were analyzed as described in Materials and Methods. […] In F, after 48 h transfection, transfected cells were seeded in 96-well plates, and cells were enumerated at day 1, day 2, and day 4, In G, different cells transfected with different siRNA were treated with the indicated concentrations of N4, and cell viability measured after a 48 h treatment. Data are expressed as mean ± SD, *P < 0.05, ***P < 0.001, n.s. not significant by one-way ANOVA followed by multiple comparisons. […] Data are expressed as mean ± SD, *P < 0.05, ***P < 0.001, n.s. not significant; Student’s t tests were performed. […]

[2] = tested on: Pan02 cells; assay: EMT markers by immunofluorescence and western blot; assay type: cell-based; conditions: IF and WB, 24 h
Experimental: Fig. 8 N4 reverses EMT phenotype and shapes the microenvironment of PDAC. A IF staining was performed to detected the level of E-cadherin (red) and vimentin (green) after PAN02 treatment with the indicated concentrations of N4 for 24 h. DAPI (blue) was used to stain Nuclei. Scale bar, 20 μm. B Western blot assays were used to examine the expression of E-cadherin, N-cadherin and vimentin after PAN02 treatment with N4 for 24 h. C IHC of vimentin, F4/80 and α-SMA in tumor tissue from orthotopic models. Data represents the mean ± SD; *P < 0.05, **P < 0.01, ***P < 0.001, ****P < 0.0001, n.s. not significant by one-way ANOVA followed by multiple-comparison tests. D Quantification of vimentin, F4/80 and α-SMA in pancreatic tumors from PDAC. Scale bar, 50 μm.
Western blotting was performed as previously described. Briefly, cells were treated with indicated compounds and then lysed by boiling. […]
Immunofluorescence staining was performed as previously described. […] Images were recorded by confocal microscopy (Leica).

SMILES: COc1cc2c(cc1C(=O)Nc1cccc3cccnc13)CCC1C(C)(C)C(=O)C(C#N)=C[C@]21C (some centres unmarked) [N4]
- colony formation, compared with C188-9 and BP-1-102 [1]: more potently inhibited
- epithelial and mesenchymal markers [2]: upregulation of E-cadherin, and downregulation of N-cadherin and vimentin
